Reference: ChEMBL document CHEMBL3526080, “In vitro inhibition of the bile salt export pump correlates with risk of cholestatic drug-induced liver injury in humans” (Drug Metab Dispos, 2012)

Assays:
[1] = molecular target: Bile salt export pump (Homo sapiens, UniProt O95342); test: Inhibition of human BSEP expressed in plasma membrane vesicles of Sf21 cells assessed as inhibition of ATP-dependent [3H]taurocholate uptake; format: cell membranes
[2] = molecular target: Bile salt export pump (Rattus norvegicus, UniProt O70127); test: Inhibition of Sprague-Dawley rat Bsep expressed in plasma membrane vesicles of Sf21 cells assessed as inhibition of ATP-dependent [3H]taurocholate uptake; format: cell membranes
Sequence of Bile salt export pump (Rattus norvegicus, UniProt O70127) (O70127 whole entry): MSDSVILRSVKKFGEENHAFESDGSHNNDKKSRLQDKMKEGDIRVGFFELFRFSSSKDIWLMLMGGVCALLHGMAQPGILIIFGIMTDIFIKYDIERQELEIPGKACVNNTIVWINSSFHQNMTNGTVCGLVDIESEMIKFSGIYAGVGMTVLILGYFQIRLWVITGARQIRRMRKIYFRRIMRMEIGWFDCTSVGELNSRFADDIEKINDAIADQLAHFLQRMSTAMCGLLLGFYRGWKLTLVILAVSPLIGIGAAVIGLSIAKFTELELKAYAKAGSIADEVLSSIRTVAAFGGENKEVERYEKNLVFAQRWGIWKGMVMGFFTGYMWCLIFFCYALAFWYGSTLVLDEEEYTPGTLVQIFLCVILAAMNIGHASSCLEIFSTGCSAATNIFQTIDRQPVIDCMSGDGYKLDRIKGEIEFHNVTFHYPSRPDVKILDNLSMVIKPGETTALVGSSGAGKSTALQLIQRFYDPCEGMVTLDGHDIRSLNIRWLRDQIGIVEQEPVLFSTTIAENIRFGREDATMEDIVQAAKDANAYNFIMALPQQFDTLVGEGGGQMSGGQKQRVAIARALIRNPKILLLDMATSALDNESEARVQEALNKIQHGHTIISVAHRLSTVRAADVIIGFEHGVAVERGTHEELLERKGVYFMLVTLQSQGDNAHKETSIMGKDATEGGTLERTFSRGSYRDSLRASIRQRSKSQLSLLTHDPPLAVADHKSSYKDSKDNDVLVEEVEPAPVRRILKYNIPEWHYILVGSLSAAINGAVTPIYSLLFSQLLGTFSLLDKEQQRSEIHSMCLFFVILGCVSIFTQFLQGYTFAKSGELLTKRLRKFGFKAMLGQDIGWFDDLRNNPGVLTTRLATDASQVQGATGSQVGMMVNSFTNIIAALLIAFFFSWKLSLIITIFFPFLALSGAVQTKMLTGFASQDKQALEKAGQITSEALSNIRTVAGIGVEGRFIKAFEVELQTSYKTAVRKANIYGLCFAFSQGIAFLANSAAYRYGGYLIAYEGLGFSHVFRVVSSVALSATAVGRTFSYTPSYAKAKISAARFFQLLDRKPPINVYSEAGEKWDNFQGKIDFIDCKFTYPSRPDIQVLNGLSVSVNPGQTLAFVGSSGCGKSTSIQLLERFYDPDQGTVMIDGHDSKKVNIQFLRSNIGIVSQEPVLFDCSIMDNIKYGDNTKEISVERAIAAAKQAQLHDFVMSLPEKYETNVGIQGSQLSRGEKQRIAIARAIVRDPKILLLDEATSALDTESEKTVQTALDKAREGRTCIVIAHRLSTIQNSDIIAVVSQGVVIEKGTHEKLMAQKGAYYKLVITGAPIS

Sequence of Bile salt export pump (Homo sapiens, UniProt O95342) (O95342 whole entry): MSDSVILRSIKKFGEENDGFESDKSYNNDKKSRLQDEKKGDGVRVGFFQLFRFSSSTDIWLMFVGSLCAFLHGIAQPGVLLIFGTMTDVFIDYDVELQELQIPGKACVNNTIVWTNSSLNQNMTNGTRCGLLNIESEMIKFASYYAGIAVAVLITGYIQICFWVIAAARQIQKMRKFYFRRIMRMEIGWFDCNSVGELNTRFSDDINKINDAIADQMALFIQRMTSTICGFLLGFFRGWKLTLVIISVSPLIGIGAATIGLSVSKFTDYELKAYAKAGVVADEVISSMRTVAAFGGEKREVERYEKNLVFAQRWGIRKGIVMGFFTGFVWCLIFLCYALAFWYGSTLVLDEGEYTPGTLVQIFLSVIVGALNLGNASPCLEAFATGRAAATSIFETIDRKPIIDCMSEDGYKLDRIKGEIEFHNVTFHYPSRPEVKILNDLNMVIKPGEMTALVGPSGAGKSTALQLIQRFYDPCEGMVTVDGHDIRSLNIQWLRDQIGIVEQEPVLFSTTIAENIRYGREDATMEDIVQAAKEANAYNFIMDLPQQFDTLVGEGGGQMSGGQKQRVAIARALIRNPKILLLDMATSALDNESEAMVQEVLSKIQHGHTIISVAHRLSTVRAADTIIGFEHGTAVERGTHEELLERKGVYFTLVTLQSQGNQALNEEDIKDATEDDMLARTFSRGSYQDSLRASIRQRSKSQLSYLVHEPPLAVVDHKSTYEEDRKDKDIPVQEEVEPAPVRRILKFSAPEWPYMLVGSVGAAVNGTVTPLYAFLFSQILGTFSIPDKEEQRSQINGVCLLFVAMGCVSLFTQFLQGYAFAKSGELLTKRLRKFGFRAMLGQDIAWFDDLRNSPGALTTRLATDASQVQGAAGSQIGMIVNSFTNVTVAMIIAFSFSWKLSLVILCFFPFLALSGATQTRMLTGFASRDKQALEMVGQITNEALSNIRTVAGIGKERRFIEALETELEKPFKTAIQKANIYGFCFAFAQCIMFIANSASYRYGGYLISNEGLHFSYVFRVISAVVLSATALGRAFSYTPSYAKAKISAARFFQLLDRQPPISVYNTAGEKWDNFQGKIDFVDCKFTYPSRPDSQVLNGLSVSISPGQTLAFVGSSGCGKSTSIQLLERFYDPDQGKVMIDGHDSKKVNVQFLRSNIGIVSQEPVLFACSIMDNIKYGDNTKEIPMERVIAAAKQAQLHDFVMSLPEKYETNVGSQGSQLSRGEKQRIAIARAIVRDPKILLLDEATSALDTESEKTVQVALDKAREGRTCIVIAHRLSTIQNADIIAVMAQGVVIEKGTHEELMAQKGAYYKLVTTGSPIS

SMILES	IC50 [1] [µM]	IC50 [2] [µM]
CC(=O)Nc1ccc(O)cc1 [ACETAMINOPHEN]	> 1000	> 1000
CC(N/C(=N\C#N)Nc1ccncc1)C(C)(C)C (stereo not drawn) [PINACIDIL ANHYDROUS]	348	222
CCCN(CCC)S(=O)(=O)c1ccc(C(=O)O)cc1 [PROBENECID]	565	510
CC(=O)Nc1ccc(OCC(O)CNC(C)C)cc1 (stereo not drawn) [PRACTOLOL]	> 1000	> 1000
CN1Cc2c(N)cccc2C(c2ccccc2)C1 (stereo not drawn) [NOMIFENSINE]	> 1000	> 1000
CCc1nn(CCCN2CCN(c3cccc(Cl)c3)CC2)c(=O)n1CCOc1ccccc1 [NEFAZODONE]	4.2	17.4
Cc1ccc(S(=O)(=O)NC(=O)NN2CC3CCCC3C2)cc1 (stereo not drawn) [GLICLAZIDE]	> 1000	> 1000
O=C(O)c1cc(-c2ccccc2)nc2ccccc12 [CINCHOPHEN]	695	296
O=C(O)c1cc(=O)c2c(OCC(O)COc3cccc4oc(C(=O)O)cc(=O)c34)cccc2o1 [CROMOLYN]	> 1000	> 1000
NC(=O)OCC(COC(N)=O)c1ccccc1 [FELBAMATE]	> 1000	> 1000
CCN1CCCC1CNC(=O)c1cc(S(N)(=O)=O)ccc1OC (stereo not drawn) [SULPIRIDE]	> 1000	> 1000
CN(Cc1cnc2nc(N)nc(N)c2n1)c1ccc(C(=O)N[C@@H](CCC(=O)O)C(=O)O)cc1 [METHOTREXATE]	> 1000	> 1000
CC(C)(S)[C@@H](N)C(=O)O [PENICILLAMINE]	> 1000	> 1000
O=C(O)c1ccccc1O [SALICYLIC ACID]	> 1000	> 1000
CC(=O)N1CCN(c2ccc(OCC3COC(Cn4ccnc4)(c4ccc(Cl)cc4Cl)O3)cc2)CC1 (stereo not drawn) [KETOCONAZOLE]		15.6
CC(C)Cc1ccc(C(C)C(=O)O)cc1 (stereo not drawn) [IBUPROFEN]	599	291
CCCCNC(=O)NS(=O)(=O)c1ccc(C)cc1 [TOLBUTAMIDE]	> 1000	> 1000
CN1CCN(C2=Nc3cc(Cl)ccc3Nc3ccccc32)CC1 [CLOZAPINE]	126	197
CCOC(=O)c1ncn2c1CN(C)C(=O)c1cc(F)ccc1-2 [FLUMAZENIL]	> 1000	> 1000
CC(=O)O[C@H]1C[C@@]2(C)[C@@H](C[C@@H](O)[C@H]3[C@@]4(C)CC[C@@H](O)[C@@H](C)[C@@H]4CC[C@@]32C)/C1=C(\CCC=C(C)C)C(=O)O [FUSIDIC ACID]	11.5	17.4
C[N+](C)(C)CC(=O)O [BETAINE]	> 1000	> 1000
Cc1oncc1C(=O)Nc1ccc(C(F)(F)F)cc1 [LEFLUNOMIDE]	177	112
CN(C)CCN(Cc1cccs1)c1ccccn1	> 1000	> 1000
NC(=O)N1c2ccccc2C=Cc2ccccc21 [CARBAMAZEPINE]	> 1000	> 1000
CCc1ccc(CCOc2ccc(CC3SC(=O)NC3=O)cc2)nc1 (stereo not drawn) [PIOGLITAZONE]	0.3	2

SMILES	IC50 [1] [µM]	IC50 [2] [µM]
CC(C)NNC(=O)c1ccncc1 [IPRONIAZID]	> 1000	> 1000
C[C@](N)(Cc1ccc(O)c(O)c1)C(=O)O [METHYLDOPA]	> 1000	> 1000
CNC(=C[N+](=O)[O-])NCCSCc1ccc(CN(C)C)o1 [RANITIDINE]		> 1000
Nc1ccc(S(=O)(=O)c2ccc(N)cc2)cc1 [DAPSONE]		> 1000
NC(N)=Nc1nc(CSCCC(N)=NS(N)(=O)=O)cs1 [FAMOTIDINE]	> 1000	> 1000
O=c1[nH]c(=O)n([C@@H]2O[C@H](CO)[C@@H](O)[C@@H]2F)cc1I [FIALURIDINE]	> 1000	> 1000
Cn1cnc([N+](=O)[O-])c1Sc1ncnc2nc[nH]c12 [AZATHIOPRINE]		> 1000
CO[C@H]1/C=C/O[C@@]2(C)Oc3c(C)c(O)c4c(O)c(c(/C=N/N5CCN(C)CC5)c(O)c4c3C2=O)NC(=O)/C(C)=C\C=C\[C@H](C)[C@H](O)[C@@H](C)[C@@H](O)[C@@H](C)[C@H](OC(C)=O)[C@@H]1C [RIFAMPIN]	11.3	34.7
C[C@H]1COc2c(N3CCN(C)CC3)c(F)cc3c(=O)c(C(=O)O)cn1c23 [LEVOFLOXACIN]	> 1000	> 1000
O=C(O)[C@H]1/C(=C/CO)O[C@@H]2CC(=O)N21 [CLAVULANIC ACID]	> 1000	> 1000
CC(C)C(=O)Nc1ccc([N+](=O)[O-])c(C(F)(F)F)c1 [FLUTAMIDE]	143	78.7
O=NN(CCCl)C(=O)NCCCl [CARMUSTINE]	> 1000	> 1000
Nc1c2c(nc3ccccc13)CCCC2 [TACRINE]	> 1000	> 1000
Cc1ncc(CO)c(CO)c1O [PYRIDOXINE]	> 1000	> 1000
CCCN(CCC)C(=O)Cc1c(-c2ccc(Cl)cc2)nc2ccc(Cl)cn12 [ALPIDEM]	9.2	23
CCCC(CCC)C(=O)O [VALPROIC ACID]	> 1000	> 1000
C#CCN(C)Cc1ccccc1 [PARGYLINE]	> 1000	> 1000
O=C(O)Cc1csc(-c2ccc(Cl)cc2)n1 [FENCLOZIC ACID]	> 1000	> 1000
CCC(=O)O[C@H]1[C@H](O[C@@H]2[C@@H](C)[C@H](O[C@H]3C[C@@](C)(OC)[C@@H](O)[C@H](C)O3)[C@@H](C)C(=O)O[C@H](CC)[C@@](C)(O)[C@H](O)[C@@H](C)C(=O)[C@H](C)C[C@@]2(C)O)O[C@H](C)C[C@@H]1N(C)C [ERYTHROMYCIN ESTOLATE]	4.1	11.4
Cc1c(C)c2c(c(C)c1O)CCC(C)(COc1ccc(CC3SC(=O)NC3=O)cc1)O2 (stereo not drawn) [TROGLITAZONE]	2.7	10.6
O=C(OCC(O)CO)c1ccccc1Nc1ccnc2cc(Cl)ccc12 (stereo not drawn) [GLAFENINE]	22.3	32.2
CN1CCC(=C2c3ccccc3CC(=O)c3sccc32)CC1 [KETOTIFEN]	738	> 1000
COc1cc2c(cc1OC)C(=O)C(CC1CCN(Cc3ccccc3)CC1)C2 (stereo not drawn) [DONEPEZIL]	206	519
COc1ccccc1Oc1c(NS(=O)(=O)c2ccc(C(C)(C)C)cc2)nc(-c2ncccn2)nc1OCCO [BOSENTAN]	38.1	30.6
Cc1ccc(C(=O)c2cc(O)c(O)c([N+](=O)[O-])c2)cc1 [TOLCAPONE]	120	47.2

SMILES	IC50 [1] [µM]	IC50 [2] [µM]
CC(c1cc2ccccc2s1)N(O)C(N)=O (stereo not drawn) [ZILEUTON]	> 1000	564
O=C1CN(/N=C/c2ccc([N+](=O)[O-])o2)C(=O)N1 [NITROFURANTOIN]		> 1000
CC(C)(Oc1ccc(CCNC(=O)c2ccc(Cl)cc2)cc1)C(=O)O [BEZAFIBRATE]	232	391
NNC(=O)c1ccncc1 [ISONIAZID]	> 1000	> 1000
CCCNC(=O)NS(=O)(=O)c1ccc(Cl)cc1 [CHLORPROPAMIDE]	> 1000	> 1000
COc1ccc(Cl)cc1C(=O)NCCc1ccc(S(=O)(=O)NC(=O)NC2CCCCC2)cc1 [GLYBURIDE]		2.8
O=C1CC2(CCCC2)CC(=O)N1CCCCN1CCN(c2ncccn2)CC1 [BUSPIRONE]	105	370
N[C@@H]1CON=C1O [CYCLOSERINE]	> 1000	> 1000
O=C(C1CCCCC1)N1CC(=O)N2CCc3ccccc3C2C1 (stereo not drawn) [PRAZIQUANTEL]	96.8	153
COc1ccc(C(=O)NCc2cccnc2)cc1C(=O)NCc1cccnc1 [PICOTAMIDE]	441	637
Cc1onc(-c2ccccc2Cl)c1C(=O)N[C@@H]1C(=O)N2[C@@H]1SC(C)(C)[C@@H]2C(=O)O [CLOXACILLIN]	220	377
NS(=O)(=O)c1cc(C(=O)O)c(NCc2ccco2)cc1Cl [FUROSEMIDE]		> 1000
CCC(=O)O[C@]1(C(=O)CCl)[C@@H](C)C[C@H]2[C@@H]3CCC4=CC(=O)C=C[C@]4(C)[C@@]3(F)[C@@H](O)C[C@@]21C [CLOBETASOL PROPIONATE]	8.5	35
Cc1onc(-c2c(F)cccc2Cl)c1C(=O)N[C@@H]1C(=O)N2[C@@H]1SC(C)(C)[C@@H]2C(=O)O [FLOXACILLIN]	209	429
CC1=C(CC(=O)O)c2cc(F)ccc2/C1=C\c1ccc([S+](C)[O-])cc1 (stereo not drawn)	226	87.5
CN(CCOc1ccc(CC2SC(=O)NC2=O)cc1)c1ccccn1 (stereo not drawn) [ROSIGLITAZONE]	6.4	40
NNc1nnc(NN)c2ccccc12 [DIHYDRALAZINE]	> 1000	> 1000
CC1(C)S[C@@H]2[C@H](NC(=O)[C@H](N)c3ccc(O)cc3)C(=O)N2[C@H]1C(=O)O [AMOXICILLIN]	> 1000	> 1000
NCCc1ccc(O)c(O)c1 [DOPAMINE]	> 1000	> 1000
Nc1nc2c(ncn2COCCO)c(=O)[nH]1 [ACYCLOVIR]	> 1000	> 1000
CN(C)CCCN1c2ccccc2Sc2ccc(Cl)cc21 [CHLORPROMAZINE]	148	122
COC(=O)C1=C(C)NC(C)=C(C(=O)OC)C1c1ccccc1[N+](=O)[O-] [NIFEDIPINE]	30.7	45.4
CC(C)(Oc1ccc(C2CC2(Cl)Cl)cc1)C(=O)O (stereo not drawn) [CIPROFIBRATE]	573	190
CC(C)NCC(O)c1ccc(O)c(O)c1 (stereo not drawn) [ISOPROTERENOL]	> 1000	> 1000
[H]/N=C(/N)N[C@H]1[C@H](O)[C@@H](O)[C@H](O[C@@H]2O[C@@H](C)[C@](O)(C=O)[C@H]2O[C@@H]2O[C@@H](CO)[C@H](O)[C@@H](O)[C@@H]2NC)[C@@H](N/C(N)=N\[H])[C@@H]1O [STREPTOMYCIN]	> 1000	> 1000
